# Source: patent publication US20220152031A1, “PYRIDAZINONES AND METHODS OF USE THEREOF” (Goldfinch Bio, Inc., priority 2019, published 2022)
# How the values were obtained:
# [1] = tested on: deoxycorticosterone acetate (DOCA)-salt hypertensive rats; assay: Albuminuria in DOCA-salt hypertensive rats; assay type: in vivo, Sprague Dawley rats
# Excerpt: The aim of this study was to evaluate the effects of the TRCP5 inhibitor, AO, to attenuate the development and/or progression of albuminuria in deoxycorticosterone acetate (DOCA)-salt hypertensive rats.
# The DOCA-salt hypertensive rat model is a well-established model of mineralocorticoid hypertension with renal dysfunction, characterized by increase levels of urinary protein and albumin excretion. [Schenk et al., “The pathogenesis of DOCA-salt hypertension,” J. Pharmacol. Toxicol. Methods (May 1992) 27(3):161-170; Gomez-Sanchez et al., “Mineralocorticoids, salt and high blood pressure,” Steroids (1996) 61:184-188.]
# Six to seven weeks old Sprague Dawley rats were unilaterally nephrectomized; after one-week recovery, rats were implanted with a DOCA pellet (45 mg) and provided tap water containing 0.9% NaCl and 0.2% KCl (Day 1) for a 3 weeks treatment. On Day 1, DOCA-salt rats received one daily dose, subcutaneously (SC), of AO at 30 mg/kg for 3 weeks; control animals for DOCA treatment were administered vehicle or eplerenone, an aldosterone blocker; sham animals, implanted with a silicone-water pellet, were given tap water and received SC administration of the vehicle. Proteinuria, albuminuria and arterial blood pressure as well as body weight were recorded every week.
# murine podocytes = assay: Murine podocytes with protamine sulfate injury; assay type: cell-based; details: pretreated 0.1, 1, 10 uM for 20 minutes, 300 ug/mL protamine sulfate 1 hour
# Experimental: Conditionally immortalized murine podocytes were differentiated for 14 days in gamma-interferon-free media[Synaptopodin Is a Coincidence Detector of Tyrosine versus Serine/Threonine Phosphorylation for the Modulation of Rho Protein Crosstalk in Podocytes. Buvall L, Wallentin H, Sieber J, Andreeva S, Choi H Y, Mundel P, Greka A. J Am Soc Nephrol. 2017 March; 28(3):837-851. doi: 10.1681/ASN.2016040414. Epub 2016 Sep. 14.]. Murine podocyte cells were pretreated with 0.1, 1, 10 uM of AO or DMSO for 20 minutes then insulted with 300 ug/mL of protamine sulfate (PS) for 1 hour; 3 technical replicate plates were treated for each condition. Murine cells were washed with 1×DPBS −/−, fixed in 4% PFA+4% sucrose for 10 minutes at room temperature, washed 3 times with 1×DPBS −/−, permeabilized with 0.3% triton, and probed for phalloidin, synaptopodin, and DAPI (Proteasomal degradation of Nck1 but not Nck2 regulates RhoA activation and actin dynamics. Buvall L, Rashmi P, Lopez-Rivera E, Andreeva S, Weins A, Wallentin H, Greka A, Mundel P. Nat Commun. (2013) 4:2863. doi: 10.1038/ncomms3863.). Tiled images were acquired using a Zeiss LSM880 Airyscan super resolution confocal microscope using ZEN 2.3. Manual quantitation of cells with or without collapsed actin cytoskeleton were quantified. […]
# [2] = tested on: human iPSC derived kidney organoids; assay: Human iPSC derived kidney organoids with protamine sulfate injury; assay type: cell-based; details: pretreated 0.2, 2, 20 uM for 20 minutes, 300 ug/mL protamine sulfate 1 hour; vs protamine sulfate alone
# Experimental: Human iPSC derived kidney organoids differentiated for 22 days [Generation of kidney organoids from human pluripotent stem cells. Takasato M, Er P X, Chiu H S, Little M H. Nat Protoc. 2016 September; 11(9):1681-92. doi: 10.1038/nprot.2016.098. Epub 2016 Aug. 18.] were pretreated with 0.2, 2, 20 uM of AO or DMSO for 20 minutes then insulted with 300 ug/mL of protamine sulfate for 1 hour; 3 technical replicate organoids were treated for each condition. Organoids were washed twice with 1×DPBS−/−, fixed in 4% PFA for 25 minutes at room temperature, washed twice with 1×DPBS−/−, and transferred to 30% sucrose at 4° C. overnight, then snap frozen in Tissue-Tek O.C.T. compound. Organoids were cryosectioned at […] thickness and stained for phalloidin. Tiled images were acquired using a Zeiss LSM880 Airyscan super resolution confocal microscope using ZEN 2.3. Mean intensity values were quantified using Fiji/ImagJ1.52d.
# [3] = DOCA-AO compared to sham animals, week 1 to 3
# [4] = DOCA-salt treatment followed by AO
smiles,measurement,setting,value
O=C1CN(c2cn[nH]c(=O)c2Cl)CCN1Cc1ccccc1C(F)(F)F [AO],urinary albumin excretion,"[1]; 30 mg/kg SC daily, week 1 to week 3, vs DOCA-vehicle control rats, significance at week 3 (p value 0.0011)",attenuated
same,adverse effects,[1]; 30 mg/kg SC once daily for 3 weeks,No adverse effects were observed
same,body weight,"[1]; DOCA vs DOCA-AO, 30 mg/kg SC once daily for 3 weeks",no significant difference
same,diastolic BP,[1]; [3],elevated
same,mean arterial blood pressure (BP),[1]; [3],elevated
same,systolic BP,[1]; [3],elevated
same,urine volume produced per day,[1]; [4],elevated
same,water intake,[1]; [4],elevated
same,murine cells protected from cytoskeletal collapse induced by protamine sulfate,murine podocytes,~20%
same,injury from protamine sulfate (mean phalloidin intensity per organoid),[2],decreased injury
